{"source": "patent US11633370B2", "about": "“Use of scavengers of reactive gamma-ketoaldehydes to extend cell lifespan and healthspan” (Vanderbilt University, priority 2016, dated 2023)", "key": {"daf-16(mu86)": {"test_system": "daf-16(mu86)", "test": "Longevity assay, daf-16 gene knockout mutant strain", "format": "in vivo, C. elegans", "details": "SA from day 1 of adulthood; P<0.01 versus vehicle control", "procedure": "C. elegans strains were cultured at 20° C. on standard nematode growth media (NGM) agar plates seeded with Escherichia coli strain NA22. The following strains were used in this work: wild-type C. elegans Bristol strain (N2), sir-2.1(ok434) IV, F19F10.5(ok888) V, and daf-16(mu86). Strains were obtained from the Caenorhabditis Genetics Center (University of Minnesota, St. Paul, Minn.). For generating cultures of 15-day-old (Day 15) adult worms, synchronized late-stage L4s/early young adult worms were transferred to peptone enriched 15 cm plates containing UV-irradiated OP50 E. coli and 0.12 mM 5-fluoro-2′-deoxyuridine (FUDR) to inhibit progeny production[88] with or without drug until harvest.\nSurvival cultures were grown on 60-mm agar plates; after the late-stage L4/young adult molt, approximately 100 adults were transferred onto SA-OP50-seeded NGM plates. Salicylamine drug plates were made fresh before transfer by spreading SA on top of the agar. […] Worms were maintained at 20° C. and live worms were counted during transfer to freshly made SA-OP50-NGM agar plates every 2-3 days. Survival was scored as movement upon slight touch with the platinum wire. […]\nFIG. 7 (S1). […] Survival was assessed every 2 days until all the worms died. […] Data are expressed as means±SEM from four independent experiments. *P<0.01 as compared to vehicle control."}, "VC199 [sir-2.1(ok434)]": {"test_system": "VC199 [sir-2.1(ok434)]", "test": "Lipofuscin autofluorescence measurement, VC199", "format": "in vivo, C. elegans", "details": "increasing concentrations of SA, day 15; p=0.50", "procedure": "As with the N2 strain, the present inventors treated VC199 nematodes with increasing concentrations of SA and assessed the age-dependent accumulation of autofluorescent lipofuscin granules and decrease in pharyngeal pumping rate.\nSynchronized late L4/early young adult worms were plated on FUDR containing SA-OP50-seeded NGM plates and worms were maintained at 20° C. Every fifth day, 10-15 worms were mounted onto 2% agar pads and anesthetized with 3 mM levamisole in DMSO. Images were taken at 250-ms exposure under a DAPI filter using an epifluorescence microscope (Nikon Eclipse 80i) equipped with a Lambda LS Xenon lamp (Sutter Instrument Company) and Nikon Plan Fluor 20× dry and Nikon Plan Apo 60×1.3 oil objectives. The fluorescence was calculated using ImageJ software."}, "N2 WT C. elegans [1]": {"test_system": "N2 WT C. elegans", "test": "Pharyngeal pumping rate, N2", "format": "in vivo", "details": "increasing concentrations of SA, measured every fifth day; p<0.05", "description": "To quantify this, the present inventors chose both a biochemical endpoint (lipofuscin autofluorescence) and a behavioral measure (pharyngeal pumping) that change predictably with aging and are associated with healthspan. The accumulation in the nematode intestinal epithelium of autofluorescent lipofuscin granules, a heterogeneous mixture of oxidized and crosslinked lipids and proteins and advanced glycation end products, is a known conserved phenomenon observed to increase with age. Visualization of lipofuscin granules is often used as an age-related assessment of healthspan. Lipofuscin autofluorescence were quantified over time (every 5 days) in N2 adult nematodes (10-20 per colony) in the presence of increasing doses of SA. […] For a behavioral/functional measurement of health, pharyngeal pumping rates were quantified. […] Pharyngeal pumping rates quantified in WT N2 worms established on OP50-seeded NGM agar plates with increasing concentrations of SA. The frequency of pharyngeal pumping was measured and recorded every fifth day as the animals aged.\nC. elegans pharyngeal pumping rate assays were performed on 60-mm agar plates with bacterial lawns at room temperature. […] The number of contractions in the terminal bulb of the pharynx was counted for 20 s and then plotted."}, "N2 WT C. elegans [2]": {"test_system": "N2 WT C. elegans", "test": "Oxygen consumption rate of whole worms, N2", "format": "in vivo", "details": "whole worms over several days; p>0.05", "description": "(§1) Mitochondria lie at the center of aging biology, playing crucial roles in energy production, carbon substrate metabolism, apoptosis regulation, and redox balance and signaling. Since sirtuins play a major role in regulating mitochondrial function, the present inventors next wanted to investigate whether SA was exerting any of its effects via protection of mitochondrial processes. To investigate SA's effects on mitochondrial respiration, the present inventors administered SA to WT N2 (FIG. 5A) and non-functional SIR-2.1 mutant worms (FIG. 5B) and measured oxygen consumption rate (OCR) in whole worms over several days. […] The present inventors also examined the effect of SA treatment on mitochondrial DNA (mtDNA) integrity.\nOxygen consumption rate for whole C. elegans was measured using a Seahorse Bioscience XF^e96 Analyzer. Worms were harvested from Day 0, 2, and 15 colonies maintained on FUDR containing SA-OP50-seeded NGM plates by washing in M9 medium, followed by floatation on an ice-cold 60% w/v sucrose gradient to segregate clean bacteria-free adult worms from bacterial debris. Worms were seeded at 1,000 worms/well in M9. After 20 min equilibration, a 2-min measurement was performed to obtain basal OCR for all experimental conditions and strains."}, "VC199 SIR-2.1 mutants": {"test_system": "VC199 SIR-2.1 mutants", "test": "mtDNA copy number by qPCR, VC199", "format": "in vivo, C. elegans", "details": "with age or with SA treatment", "description": "as §1\nRelative mitochondrial and nuclear copy number were measured by quantitative, real-time PCR [90]. Primers for NADH dehydrogenase unit 1 (nd1) and a 164 bp region of the cox-4 gene were used in determination of mtDNA copy number. The nd1 forward primer 5′-[…]-3′ and reverse primer 5′-[…]-3′. Cox-4 forward primer 5′-GCCGACTGGAAGAACTTGTC-3′ and reverse primer 5′-[…]-3′. […] Amplified products were detected with SYBR Green (iQ™ SYBR® Green Supermix, Bio-Rad) and fluorescent signal intensities were determined by CFX96 Touch™ Real-Time PCR Detection System (Bio-Rad) by software CFX Manager™ (version 3.1). […]"}, "[3]": {"test_system": "intact cells exposed to hydrogen peroxide", "details": "SA pre-treatment, vehicle control 95% cell death; cited from earlier work"}}, "data": [{"compound": "NCc1ccccc1O", "note": "[SA, salicylamine]", "values": [{"measurement": "maximum and median lifespan", "setting": "daf-16(mu86)", "result": "increased maximum and median lifespan"}, {"measurement": "accumulation of lipofuscin", "setting": "VC199 [sir-2.1(ok434)]", "result": "none of the doses of SA used were able to decrease the accumulation of lipofuscin"}, {"measurement": "age-associated decline in pharyngeal pumping rate", "setting": "N2 WT C. elegans [1]", "result": "dose-dependent protection"}, {"measurement": "mitochondrial oxygen consumption rate (OCR)", "setting": "N2 WT C. elegans [2]", "result": "no effect"}, {"measurement": "mtDNA copy number relative to nuclear DNA", "setting": "VC199 SIR-2.1 mutants", "result": "no significant difference"}, {"measurement": "occurrence in cell death", "setting": "[3]", "result": 5, "unit": "%"}]}]}
